Counter-ions that a name gives are not always drawn. Like-named read-outs stand apart in the source and are kept apart here.
Experiments:
[1] = test system: cardiomyocytic cell line derived from human ventricular heart tissue; assay: Cell viability in cardiomyocyte compound screen (CellTiter-Glo); format: cell-based
[2] = test system: cardiomyocytic cell line derived from human ventricular heart tissue; assay: Small molecule compound screen of gigasome production in cardiomyocytic monocultures;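 as to all read-outs here: gigasomes shed into the culture medium were imaged by confocal microscopy and counted as round particles lacking nuclear signal, extrapolated to the whole well, fold change is relative to DMSO vehicle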; conditions: for fold induction at 0.01 µM / fold induction at 0.1 µM / fold induction at 1 µM / fold induction at 10 µM: Homo sapiens, Cardiomyocyte, read-out: Fold Change of Gigasomes Produced vs. DMSO
[3] = test system: neuronal cell line derived from human neuroblastoma; conditions: neuronal cells, 24 hours
Description: For the screening, a total of 99 compounds (TargetMol) were divided in 5 groups. Each group included an untreated condition, a vehicular DMSO control, and a known high-gigasome producing condition to comparatively study gigasome production rates. As a cell death control group, 500 nM Staurosporine was added to induce apoptosis. Cultures were incubated for 24 hours under gigasome inducing conditions at concentrations ranging between 10 nM and 10,000 nM. Before the end of the treatment, live neuronal cultures were imaged. The Zeiss ZEN Blue software was used to distribute imaging fields of view (positions) to create an unbiased imaging sample of a well. 5 images were taken using a Zeiss LSM 900 confocal microscope. […] The BioApps ZEN software package was used to perform cell nucleus segmentation and counting. After 24 hours, gigasomes were harvested from the cell culture media by gently removing from the top of each 96-well ⅔ of the total volume without disturbing the cell layer (containing the settled gigasomes) and by adding to each well the same amount of PBS. […] Cells remaining in the 96-well plates were assessed for viability using CellTiter-Glo (Promega).

[4] = test system: neuronal cell line derived from human neuroblastoma; assay: Small molecule compound screen of gigasome production in neuronal monocultures; conditions: for Number of Gigasomes Produced: neuronal cells, 24 hours
[5] = Table 23 (down-regulators), dose 10 nM, cardiomyocytes
[6] = Table 23 (down-regulators), dose 100 nM, cardiomyocytes
[7] = Table 23 (down-regulators), dose 1000 nM, cardiomyocytes
[8] = Table 23 (down-regulators), dose 10000 nM, cardiomyocytes
[9] = Table 22, dose 10 nM, cardiomyocytes, 24 hours
[10] = Table 22, dose 10000 nM, cardiomyocytes, 24 hours
[11] = Table 22, dose 1000 nM, cardiomyocytes, 24 hours
[12] = Table 22, dose 100 nM, cardiomyocytes, 24 hours
[13] = Homo sapiens, 24 h, read-out: Fold Change of Gigasomes Produced vs. DMSO

In the case of `O=C(O)CC[N+](=O)[O-]` [3-Nitropropanoic acid, reference compound], the Viability [1, 5] was over 75%, the Viability [1, 6] was 100.0% and the Viability [1, 7] was over 75%. For the same compound, the Viability [1, 8] was 100.0%, the fold induction at 0.01 µM ([2]; 24 h) was 0.75 to 1 and the fold induction at 0.1 µM ([2]; 24 h) was 0.75 to 1. For the same compound, the fold induction at 1 µM ([2]; 24 h) was 0.25 to 0.5, the fold induction at 10 µM ([2]; 24 h) was 0.25 to 0.5 and the “Number of Gigasomes Produced” value [2, 5] was 105-120. The “Number of Gigasomes Produced” value [2, 6] was 90-105, the “Number of Gigasomes Produced” value [2, 7] was 50-75 and the “Number of Gigasomes Produced” value [2, 8] was 35-50. For the same compound, the “downregulation of gigasome production” value ([2]; cardiomyocytes, doses 10-10,000 nM, 24 h) was “dose-dependent downregulation”.

With `CC(N)=NCc1cccc(CN)c1.Cl.Cl` [1400W dihydrochloride] the Viability [1, 9] was 100%, the Viability [1, 5] was 100.0% and the Viability [1, 6] was 100.0%. For the same compound, the Viability [1, 7] was 100.0%, the Viability [1, 8] was 100.0% and the “Number of Gigasomes Produced” value [2, 9] was 150-175. For the same compound, the “Number of Gigasomes Produced” value [2, 5] was over 150, the “Number of Gigasomes Produced” value [2, 6] was 90-105 and the “Number of Gigasomes Produced” value [2, 7] was 90-105. The “Number of Gigasomes Produced” value [2, 8] was 50-75.

For `COc1cc(C(C)=O)ccc1O` [Apocynin], the Viability ([1]; human, 24 h, 10 nM) was over 75%, the Viability ([1]; human, 24 h, 10000 nM) was over 75% and the fold induction at 0.01 µM ([2]; 24 h) was 1 to 1.25. The fold induction at 10 µM ([2]; 24 h) was 1 to 1.25, the “Number of Gigasomes Produced” value [2, 9] was 150-175 and the “Number of Gigasomes Produced” value [2, 10] was 150-175.

In the case of `NC(=O)N1c2ccccc2C=Cc2ccccc21` [Carbamazepine], the Viability ([1]; human, 24 h, 10 nM) was over 75%, the Viability ([1]; human, 24 h, 1000 nM) was over 75% and the Viability ([1]; human, 24 h, 10000 nM) was over 75%. It also gave a fold induction at 0.01 µM ([2]; 24 h) of 1 to 1.25, a fold induction at 1 µM ([2]; 24 h) of 1.25 to 1.5 and a fold induction at 10 µM ([2]; 24 h) of 1.25 to 1.5. For the same compound, the “Number of Gigasomes Produced” value [2, 9] was 200-225, the “Number of Gigasomes Produced” value [2, 11] was 250-275 and the “Number of Gigasomes Produced” value [2, 10] was 250-275.

In the case of `Nc1ncn([C@@H]2O[C@H](CO)[C@@H](O)[C@H]2O)c(=O)n1` [Compound 5-Azacytidine, 5-Azacytidine], the Viability ([1]; human, 24 h, 1000 nM) was 50-75%, the fold induction at 1 µM ([2]; 24 h) was 1 to 1.25 and the “Number of Gigasomes Produced” value [2, 11] was 150-175.

In the case of `O=C(Nc1ccncc1)c1cc([N+](=O)[O-])ccc1Cl` [Compound T0070907], the Viability [1, 9] was 100%, the Viability [1, 12] was 100% and the “Fold Change of Gigasomes Produced vs. DMSO” value [2, 9] was 1.0-1.25. For the same compound, the “Number of Gigasomes Produced” value [2, 9] was 150-175, the “Fold Change of Gigasomes Produced vs. DMSO” value [2, 12] was 1.0-1.25 and the “Number of Gigasomes Produced” value [2, 12] was 150-175.

With `O=S(=O)(c1ccccc1)N(CC(F)(F)F)c1ccc(C(O)(C(F)(F)F)C(F)(F)F)cc1` [Compound T0901317] the Viability ([1]; human, 24 h, 10000 nM) was over 75%, the fold induction at 10 µM ([2]; 24 h) was 1 to 1.25 and the “Number of Gigasomes Produced” value [2, 10] was 150-175.

With `Cn1c(=O)n(-c2ccc(C(C)(C)C#N)cc2)c2c3cc(-c4cnc5ccccc5c4)ccc3ncc21` [Dactolisib] the Viability ([1]; human, 24 h, 10000 nM) was over 75%, the fold induction at 10 µM ([2]; 24 h) was 1.25 to 1.5 and the “Number of Gigasomes Produced” value [2, 10] was 150-175.

With `CN(C)CCCSC(=N)N` [Dimaprit dihydrochloride] the Viability [1, 5] was 100.0%, the Viability [1, 6] was 100.0% and the Viability [1, 7] was over 75%. It also gave a Viability [1, 8] of 100.0%, a fold induction at 0.01 µM ([2]; 24 h) of 0.75 to 1 and a fold induction at 0.1 µM ([2]; 24 h) of 0.75 to 1. For the same compound, the fold induction at 1 µM ([2]; 24 h) was 0.5 to 0.75, the fold induction at 10 µM ([2]; 24 h) was 0.25 to 0.5 and the “Number of Gigasomes Produced” value [2, 5] was 90-105. For the same compound, the “Number of Gigasomes Produced” value [2, 6] was 75-90, the “Number of Gigasomes Produced” value [2, 7] was 50-75 and the “Number of Gigasomes Produced” value [2, 8] was 50-75.

`Cc1cc(C)c(S(=O)(=O)N(Cc2ccc(-c3cccc(S(C)(=O)=O)c3)cc2)Cc2ccc(C(F)(F)F)o2)c(C)c1` [GSK2033] was tested, and the Viability ([1]; human, 24 h, 10000 nM) was 100%, the fold induction at 10 µM ([2]; 24 h) was 1.25 to 1.5 and the “Number of Gigasomes Produced” value [2, 10] was 150-175.

`NC1=N[C@@]2(c3cc(NC(=O)c4ccc(F)cn4)ccc3F)COC[C@H]2CS1` [LY288672, reference compound] was tested, and the Viability ([1]; human, 24 h, 1000 nM) was over 75%, the fold induction at 1 µM ([2]; 24 h) was 1.5 to 1.75 and the “Number of Gigasomes Produced” value [2, 11] was 175-200.

`COC(=O)C=Cc1ccccc1` [Methyl cinnamate] was tested, and the Viability ([1]; human, 24 h, 1000 nM) was over 75%, the fold induction at 1 µM ([2]; 24 h) was 1.25 to 1.5 and the “Number of Gigasomes Produced” value [2, 11] was 150-175.

`CC(=O)c1cc2c(o1)C(=O)c1ccccc1C2=O` [Napabucasin] gave a Viability ([3]; dose 10 nM) of 100%, a Viability ([3]; dose 100 nM) of 100% and a fold induction at 0.01 µM [4, 13] of 1 to 1.25. For the same compound, the fold induction at 0.1 µM [4, 13] was 1.5 to 1.75, the “Number of Gigasomes Produced” value ([4]; dose 10 nM) was 35-45 and the “Number of Gigasomes Produced” value ([4]; dose 100 nM) was 45-55.

— US20240400986A1, “MEMBRANE BOUND COMPOSITIONS AND METHODS RELATING TO SAME” (FLAGSHIP PIONEERING INNOVATIONS VII, LLC, priority 2021, published 2024)
